Data: ChEMBL document CHEMBL1201862, “PubChem BioAssay data set” (2004)
Activity calls are given as the source filed them.

Tests used:
[1] = target: T1, Polyadenylate-binding protein 1 (Homo sapiens, UniProt P11940); test: MLLE binding blockers, Cy5 peptide tracer – biochemical, fluorescence polarization, Cy5-PAM2 peptide, secondary, miRNA deadenylation inhibitor project, dose response (AID 602260); assay type: functional; details: read-out: IC50_Mean
[2] = target: T1, Polyadenylate-binding protein 1; test: MLLE domain peptide-binding blockers, IC50 – biochemical, fluorescence polarization, FITC-PAM2 peptide, dose response (AID 602259); assay type: functional; details: read-out: IC50_Mean
[3] = target: T2, Replicative DNA helicase DnaB (Mycobacterium tuberculosis, UniProt P9WMR3); test: DnaB intein splicing inhibitors, dose response, biochemical, cell-free fluorescence (AID 449749); assay type: functional
T2 sequence (P9WMR3 whole entry): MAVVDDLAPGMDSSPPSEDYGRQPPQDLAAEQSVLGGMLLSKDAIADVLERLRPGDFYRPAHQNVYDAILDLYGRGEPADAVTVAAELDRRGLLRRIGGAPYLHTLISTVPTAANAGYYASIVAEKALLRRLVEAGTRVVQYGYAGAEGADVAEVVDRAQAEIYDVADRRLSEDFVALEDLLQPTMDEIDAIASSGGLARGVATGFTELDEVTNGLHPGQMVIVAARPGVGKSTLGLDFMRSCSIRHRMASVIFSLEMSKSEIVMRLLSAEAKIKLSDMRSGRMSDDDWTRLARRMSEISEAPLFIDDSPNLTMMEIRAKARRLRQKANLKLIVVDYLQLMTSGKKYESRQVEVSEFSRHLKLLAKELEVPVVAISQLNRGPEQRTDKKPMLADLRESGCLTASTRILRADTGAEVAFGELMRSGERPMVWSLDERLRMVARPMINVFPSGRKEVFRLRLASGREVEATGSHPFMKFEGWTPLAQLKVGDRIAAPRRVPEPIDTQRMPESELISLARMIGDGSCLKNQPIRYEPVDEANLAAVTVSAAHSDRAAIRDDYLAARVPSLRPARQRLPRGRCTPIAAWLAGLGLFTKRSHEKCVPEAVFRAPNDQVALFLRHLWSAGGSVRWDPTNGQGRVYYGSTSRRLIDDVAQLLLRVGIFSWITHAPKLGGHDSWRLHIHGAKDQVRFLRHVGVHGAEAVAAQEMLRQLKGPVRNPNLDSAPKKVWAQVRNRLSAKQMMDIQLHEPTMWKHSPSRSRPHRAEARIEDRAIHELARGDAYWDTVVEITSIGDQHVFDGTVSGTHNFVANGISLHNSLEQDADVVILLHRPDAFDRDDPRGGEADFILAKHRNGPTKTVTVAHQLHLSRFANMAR

[4] = target: T3, Protein RecA (Mycobacterium tuberculosis, UniProt P9WHJ3); test: Fluorescence Cell-Free Homogeneous Dose Retest to Identify Inhibitors of RecA-Intein Splicing Activity. [Related pubchem assays (depositor defined):AID2097, AID2223, AID489010, AID492950]; assay type: functional
T3 sequence (P9WHJ3 whole entry): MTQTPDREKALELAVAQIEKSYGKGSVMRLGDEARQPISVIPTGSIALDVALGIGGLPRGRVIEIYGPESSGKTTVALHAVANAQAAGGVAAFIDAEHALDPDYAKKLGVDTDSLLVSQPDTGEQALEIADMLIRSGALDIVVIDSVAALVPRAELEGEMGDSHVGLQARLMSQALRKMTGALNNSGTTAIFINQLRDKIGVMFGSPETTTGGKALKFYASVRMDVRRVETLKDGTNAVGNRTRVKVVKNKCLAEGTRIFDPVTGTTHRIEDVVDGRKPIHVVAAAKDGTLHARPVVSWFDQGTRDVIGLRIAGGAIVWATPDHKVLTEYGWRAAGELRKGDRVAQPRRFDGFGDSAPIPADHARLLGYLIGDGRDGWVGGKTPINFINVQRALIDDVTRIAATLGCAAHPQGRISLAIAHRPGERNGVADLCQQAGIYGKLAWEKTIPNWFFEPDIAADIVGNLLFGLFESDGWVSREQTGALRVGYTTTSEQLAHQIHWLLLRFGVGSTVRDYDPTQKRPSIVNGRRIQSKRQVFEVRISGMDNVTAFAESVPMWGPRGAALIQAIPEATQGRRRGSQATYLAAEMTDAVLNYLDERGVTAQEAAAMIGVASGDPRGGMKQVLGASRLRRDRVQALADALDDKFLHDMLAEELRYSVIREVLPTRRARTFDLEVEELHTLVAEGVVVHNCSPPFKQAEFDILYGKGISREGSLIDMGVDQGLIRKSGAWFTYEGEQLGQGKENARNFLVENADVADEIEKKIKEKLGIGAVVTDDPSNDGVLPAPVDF

[5] = target: T4, Calpain-2 catalytic subunit (Sus scrofa, UniProt P43367); test: m-calpain protease blockers, concentration series – biochemical, fluorogenic peptide substrate, dose response (AID 1420); assay type: functional
T4 sequence (P43367 whole entry): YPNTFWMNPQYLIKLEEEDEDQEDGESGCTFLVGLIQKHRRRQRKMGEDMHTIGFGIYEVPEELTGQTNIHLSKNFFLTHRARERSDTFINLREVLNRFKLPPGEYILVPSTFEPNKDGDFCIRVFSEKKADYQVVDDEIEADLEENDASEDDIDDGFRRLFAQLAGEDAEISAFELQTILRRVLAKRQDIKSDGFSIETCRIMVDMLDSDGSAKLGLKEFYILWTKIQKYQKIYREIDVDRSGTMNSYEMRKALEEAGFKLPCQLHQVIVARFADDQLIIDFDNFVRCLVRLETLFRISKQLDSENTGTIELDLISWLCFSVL

[6] = target: FAD-linked sulfhydryl oxidase ALR (Homo sapiens, UniProt P55789); test: ALR-catalysed DTT oxidation blockers – biochemical, H2O2 detection, luminescence, cherry-pick, dose response (AID 493248)
Sequence of FAD-linked sulfhydryl oxidase ALR (P55789 whole entry): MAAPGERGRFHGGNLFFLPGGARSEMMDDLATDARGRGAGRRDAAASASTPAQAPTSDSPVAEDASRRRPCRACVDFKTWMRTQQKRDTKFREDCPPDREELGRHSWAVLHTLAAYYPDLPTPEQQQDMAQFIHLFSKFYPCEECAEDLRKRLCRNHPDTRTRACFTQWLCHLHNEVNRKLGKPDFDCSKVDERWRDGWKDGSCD

[7] = test system: Vero; test: cells; assay type: functional; details: Chlorocebus sabaeus
[8] = test system: BJ; test: cells; assay type: functional, cell-based; details: Homo sapiens
[9] = test system: BJ; test: BJ-TERT fibroblast viability loss – cell-based, RAS-independent, luminescence, dose response (AID 1933); assay type: functional; details: Homo sapiens
[10] = test system: BJ; test: BJ-TERT-LT-ST fibroblast viability loss – cell-based, RAS-independent, luminescence, dose response (AID 1935); assay type: functional; details: Homo sapiens;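 note: BJ fibroblasts immortalized with TERT plus LT and ST oncogenes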
[11] = DRD fibroblast viability loss – cell-based, non-viral oncogenic, luminescence, dose response (AID 1934); assay type: functional; details: Homo sapiens
[12] = NIH3T3 cell viability loss – ATP luminescence, mouse fibroblasts, counter-screen, dose response (AID 2010); assay type: functional, cell-based;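 note: cells exposed to compound for about 90 hours before reading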
[13] = Trypanosoma cruzi growth suppression in host cells – NIH3T3 host cells, beta-gal luminescence, confirmation (AID 2044); assay type: functional, cell-based;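 note: intracellular parasites grown in NIH/3T3 mouse fibroblasts as host cells; luminescent beta-galactosidase reporter signal from transgenic T. cruzi replicating inside host cells; inhibitors lower the luminescence signal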
[14] = test system: H4; test: Luminescence Cell-Based Dose Response HTS to Identify Activators of 5'UTR Stem-Loop Driven Prion Protein mRNA Translation in H4 Neuroglioblastoma Cells. [Related pubchem assays: 1829 (Project Summary), 1814 (Primary HTS)]; assay type: functional; details: Homo sapiens
[15] = Luminescence Cell-Based Dose Confirmation HTS to Identify Activators of 5'UTR Stem-Loop Driven Alpha-Synuclein mRNA Translation in H4 Neuroglioblastoma Cells. [Related pubchem assays: 1829 (Project Summary), 1814 (Primary HTS)]; assay type: functional
[16] = Luminescence Cell-Based Dose Response HTS to Identify Activators of Luciferase Translation or Activity in H4 […] Cells. [Related pubchem assays: 1829 (Project Summary), 1814 (Primary HTS)]; assay type: functional
[17] = viability of PTEN-deleted HCT116 cells – cell-based, HCT116 PTEN knockout, dose response (AID 1047); assay type: functional;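 note: HCT116 colon tumor cells with PTEN knocked out; cells exposed to compound for 60 hours before readout; potency for loss of cell viability measured by luminescence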
[18] = test system: Streptococcus sp. 'group A'; test: Streptococcus pyogenes SK(-)GAS viability under kanamycin – luminescence, BacTiterGlo, confirmation, counter-screen for streptokinase expression inhibitor project, dose response (AID 1900); assay type: functional, organism-based
[19] = viability of HCT116 lacking mutant beta-catenin – cell-based, human colon tumor, dose response (AID 1045); assay type: functional;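 note: HCT116 colon tumor cells with beta catenin knocked out; cells exposed to compound for 60 hours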
[20] = test system: Streptococcus; test: GAS UMAA2166 growth inhibition – luminescence, BacTiterGlo, counter-screen for streptokinase expression inhibitor project, dose response (AID 1915); assay type: functional, organism-based;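 note: potency for reduction of bacterial viability or growth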

T1 sequence (P11940 whole entry, the tested form may be a part): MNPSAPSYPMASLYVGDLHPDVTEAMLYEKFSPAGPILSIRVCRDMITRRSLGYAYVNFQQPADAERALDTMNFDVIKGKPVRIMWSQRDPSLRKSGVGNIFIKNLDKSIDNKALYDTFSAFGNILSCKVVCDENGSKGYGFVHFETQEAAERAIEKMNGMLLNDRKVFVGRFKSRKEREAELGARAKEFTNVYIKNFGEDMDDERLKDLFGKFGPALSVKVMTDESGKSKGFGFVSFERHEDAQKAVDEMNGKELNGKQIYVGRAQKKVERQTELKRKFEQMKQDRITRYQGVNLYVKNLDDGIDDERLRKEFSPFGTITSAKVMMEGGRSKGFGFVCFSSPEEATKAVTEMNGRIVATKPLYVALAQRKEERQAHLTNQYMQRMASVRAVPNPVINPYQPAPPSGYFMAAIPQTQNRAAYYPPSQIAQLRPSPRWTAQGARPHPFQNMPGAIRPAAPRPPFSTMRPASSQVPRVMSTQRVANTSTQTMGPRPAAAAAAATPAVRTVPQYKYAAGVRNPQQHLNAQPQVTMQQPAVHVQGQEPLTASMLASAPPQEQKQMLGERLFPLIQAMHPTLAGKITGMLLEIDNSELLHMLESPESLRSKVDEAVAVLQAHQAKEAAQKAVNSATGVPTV

CC1(C)Cc2c(c(-c3ccco3)[nH]c(=O)c2C#N)CS1
IC50 [1]: > 66 µM (inactive) | IC50 [2]: 26 µM (inactive)

COc1cc(C(=O)NC2=NCCS2)ccc1OCc1c(C)noc1C
IC50 [1]: > 66 µM (inactive) | IC50 [2]: > 66 µM (inactive)

CCn1c(COc2ccc(Cl)cc2)nnc1SC1CCc2ccccc2C1=O (centres undefined)
AC50 [3]: 9.31 µM (active) | EC50 [4]: 25.4 µM (active) | IC50 [5]: 7.24 µM (not active)

O=C(O)C1CSC(c2ccncc2)N1 (centres undefined)
IC50 [1]: > 66 µM (inactive) | IC50 [2]: > 66 µM (inactive)

CC(=O)Nc1ccc(C2=NN(C)/C(=N/Cc3ccccc3)SC2)cc1
AC50 [6]: 3.9 µM (active) | IC50 [5]: 8.93 µM (not active)

CCOc1ccccc1CNC(=O)c1cn(C)c(=O)c2c1c1ccccc1n2C
CC50 [7]: > 25 µM (active)

O=C(Nc1ccccc1N1CCCCC1)c1ccc(-c2ccc(Cl)cc2)o1
EC50 [8]: 40.9 µM (inconclusive) | EC50 [9]: 3.11 µM (inconclusive) | EC50 [10]: 46.9 µM (inconclusive) | EC50 [11]: 2.91 µM (active)

Cc1ccccc1SCC(=O)NC1CCOC1=O (centres undefined)
IC50 [1]: > 66 µM (inactive) | IC50 [2]: > 66 µM (inactive)

COc1ccc(CNC(=O)CN(Cc2ccc(C)cc2)C(=O)c2csnn2)cc1
IC50 [1]: > 66 µM (inactive) | IC50 [2]: > 66 µM (inactive)

C=COC(=O)NC1CCc2cc(OC)c(OC)c(OC)c2-c2ccc(SC)c(=O)cc21 (centres undefined)
CC50 [7]: < 0.05 µM (active)

O=C(CSC1=Nc2ccccc2C2=NC(CC(=O)NCc3ccco3)C(=O)N12)NCc1ccco1 (centres undefined)
IC50 [1]: > 66 µM (inactive) | IC50 [2]: > 66 µM (inactive)

Cc1cccn2c(=O)c3cc(C(=O)NCc4ccco4)c(=N)n(CCOCCO)c3nc12
IC50 [1]: > 66 µM (inactive) | IC50 [2]: 15.2 µM (active)

CCC(CC)c1nnc(NC(=O)CC(C)c2ccccc2)s1 (centres undefined)
EC50 [8]: > 150 µM (not active) | EC50 [9]: > 150 µM (not active) | EC50 [10]: > 75 µM (inconclusive) | EC50 [11]: > 150 µM (not active)

CC(C)(C)c1ccc(C(=O)NC(=S)Nc2ccc(N3CCOCC3)cc2)cc1
EC50 [8]: 148 µM (inconclusive) | EC50 [9]: 18.2 µM (active) | EC50 [10]: > 150 µM (not active) | EC50 [11]: > 150 µM (not active)

CC(=O)O[C@H]1C[C@]2(O)[C@@H]3CC[C@@H]4C[C@@H](O)CC[C@]4(C)[C@H]3CC[C@]2(C)[C@H]1C1=CC(=O)OC1
CC50 [7]: 0.46 µM (active)

O=C1Cc2c(-c3ccccc3)cc(-c3cccc(Cl)c3)nc2-c2ccccc2N1
CC50 [7]: 11.4 µM (active)

CC1=Nc2cc(C(=O)NCCCOC(C)C)ccc2Sc2ccccc21
EC50 [8]: 57.5 µM (active) | EC50 [9]: 15.4 µM (active) | EC50 [10]: > 150 µM (inconclusive) | EC50 [11]: 18.6 µM (active)

CN(C)c1n/c(=N/c2cccc(Cl)c2)ss1
CC50 [7]: 21.6 µM (active)

CCCCCOc1ccc(/C(C)=N/NC2=NCCN2)cc1
CC50 [7]: > 25 µM (active)

O=C(Nc1ccc(Oc2ccccc2)nc1)C1CCCCN1Cc1ccco1 (centres undefined)
EC50 [8]: 35.3 µM (active) | EC50 [9]: 8.7 µM (inconclusive) | EC50 [10]: 5.04 µM (inconclusive) | EC50 [11]: 17.3 µM (inconclusive)

O=Cc1[nH]c2ccccc2c1N(C(=O)CCl)c1ccc([N+](=O)[O-])cc1
EC50 [8]: 7.89 µM (active) | EC50 [9]: 5.65 µM (inconclusive) | EC50 [10]: 4.03 µM (active) | EC50 [11]: 5.75 µM (inconclusive)

Cc1ccc2ncccc2c1NC(=S)NC(=O)c1ccccc1
IC50 [1]: > 66 µM (inactive) | IC50 [2]: > 66 µM (inactive)

Cc1nc(NC(=O)c2ccco2)sc1C(=O)O
EC50 [8]: 4.14 µM (active) | EC50 [9]: 7.4 µM (active) | EC50 [10]: > 150 µM (inconclusive) | EC50 [11]: 10.3 µM (active)

O=C(CCl)N(CCc1ccccc1)CCc1ccccc1
EC50 [12]: > 30 µM (not active) | CC50 [7]: 8.89 µM (active) | AC50 [3]: 10 µM (active) | EC50 [4]: 2.36 µM (active) | EC50 [13]: 2.07 µM (active)

Cn1c(CCC(=O)O)nc2cc(S(=O)(=O)N3CCCCC3)ccc21
IC50 [1]: > 66 µM (inactive) | IC50 [2]: > 66 µM (inactive)

COc1ccc(C(=O)/C=C/c2ccccc2)c(OC)c1
CC50 [7]: 12.4 µM (active)

COc1cccc(/C=C2\SC(=S)N(CCC(=O)N3CCCCC3CCO)C2=O)c1 (centres undefined)
CC50 [7]: 15.9 µM (active)

CCCCCC(=O)Nc1ccc(N2CCN(CC)CC2)c(Cl)c1
EC50 [14]: 5.08 µM (active) | EC50 [15]: 15.5 µM (active) | EC50 [16]: 5.11 µM (active) | IC50 [5]: 18.8 µM (not active)

Cc1cccc(-c2nnc(NC(=O)c3ccc(Cl)cc3)o2)c1
EC50 [17]: 23.1 µM (active) | EC50 [18]: 0.099 µM (active) | CC50 [7]: > 25 µM (active) | EC50 [19]: 17.4 µM (active) | EC50 [20]: 0.81 µM (active)

Cc1ccc(S(=O)(=O)N2C[C@H]3n4c(=O)ccc(=O)n4C[C@H](OC(=O)NCC4CCCCC4)[C@@]3(O)C2)cc1
CC50 [7]: > 25 µM (active)
